We go through three compounds from US20220280541A1, “METHOD FOR IDENTIFYING CARBOHYDRATE DRUG-SENSITIVE PATIENT IN PATIENTS HAVING ALZHEIMER'S DISEASE” (SHANGHAI GREEN VALLEY PHARMACEUTICAL CO., LTD., priority 2019, published 2022).

In assay [1] the test system is naive CD4^+ T cells. The assay can be described thus: In vitro differentiation and proliferation induced by phenylalanine and isoleucine. Format: cell-based, mouse. The settings on record: amino acid added directly to naive CD4^+ T cell culture. How it is done:
In Vitro differentiation and proliferation induced by phenylalanine and isoleucine. Naive CD4^+ T cells were separated from the splenocytes of 8-month-old C57BL/6 female mice using the Naive CD4^+ T cell Isolation Kit (Stem Cell, #19765), and the cells were stained with CellTrace (Thermo Fisher, #C34557). A total of 1×10^5 cells/well in 0.2 mL of RPMI-1640 medium were plated in 96-well plates, and the culture medium was supplemented with cytokines or blocking antibodies. Th0: 10 ng/mL mIL-2; Th1:10 ng/mL mIL-2, 5000 ng/mL 11B11. Phenylalanine (final concentration, 2 mmol/L), isoleucine (final concentration, 2 mmol/L) and OM1 (final concentration, 100 μg/mL) were added into the indicated wells, respectively. After incubation at 37° C. in 5% CO2 for 5 days, cells were acquired on a BD Fortessa cytometer, and data were analyzed using FlowJo software.

For assay [2], the system named is Th1 cells. The assay can be described thus: Intraperitoneal injection of phenylalanine and isoleucine, blood Th1 cells. Format: in vivo, mouse. The conditions noted are these: WT (C57) mice, intraperitoneal injection 50 mg/kg for 4 days. The procedure: Animals. Tg mice and co-housed WT mice (corresponding WT mice generated by mating Tg mice and C57 mice) were housed in the same cage after birth. WT mice (C57) were housed in separate cages to avoid cross-transfer of microbiota. All mice were kept in a 23° C. room with a 12-hour (h) light-dark cycle. Mice were randomly assigned to different groups before treatment. For time course analysis of Tg mice, male and female Tg mice were sacrificed at 2, 3, 5, 7 and 9 months of age. The mouse brain was collected and stained for immune cell analysis and cytokine analysis. Before the mice were sacrificed, feces were collected for gut microbiota analysis. For OM1 treatment, at the age of 6.5 months, based on 450 mg b.i.d. (twice a day) in the phase III trial, Tg mice were treated with 100 mg/kg OM1 by oral administration once a day for one month. Behavioral tests were performed to monitor cognitive activity after the last treatment. […] All mouse movements that occur in PhenoTyper (HomeCage) are recorded by a computerized tracking system, which calculates the time and number of entrances required to reach 80% of the performance standard (Noldus, Ethovision). […]
Flow cytometry sample preparation and analysis. […] All samples were counted and adjusted to a density of 2-3×10^6/100 μL, labeled with a Live/Dead kit for 30 min, and then centrifuged at 500×g for 3 min at 4° C. […]

In assay [3] the test system is Th1 cells. The assay can be described thus: Flow cytometry of brain Th1 cells in 5XFAD (Tg) mice. Format: in vivo, mouse. The settings on record: 6-month-old 5XFAD mice, 50 mg/kg intraperitoneal daily for one month, versus vehicle.
Method: Animals. Tg mice and co-housed WT mice (corresponding WT mice generated by mating Tg mice and C57 mice) were housed in the same cage after birth. […] All mice were kept in a 23° C. room with a 12-hour (h) light-dark cycle. Mice were randomly assigned to different groups before treatment. For time course analysis of Tg mice, male and female Tg mice were sacrificed at 2, 3, 5, 7 and 9 months of age. The mouse brain was collected and stained for immune cell analysis and cytokine analysis. […] For OM1 treatment, at the age of 6.5 months, based on 450 mg b.i.d. (twice a day) in the phase III trial, Tg mice were treated with 100 mg/kg OM1 by oral administration once a day for one month. […] The brains and feces of the mice were then used for different analyses.
Flow cytometry sample preparation and analysis. Mice were anesthetized, blood samples were collected into EDTA-containing tubes, and red blood cells were removed using 1×red blood lysis buffer. Before tissue collection, the brains were perfused with ice-cold PBS to avoid sampling the circulating blood immune cells, and the brains were removed, chopped into pieces and dissected according to the introduction of the Adult Brain Dissociation Kit (Miltenyi, Cat No. 130-107-677) using the gentleMACS dissociator (Miltenyi Biotec). The brain homogenate was filtered through a 70-μm cell strainer and centrifuged at 300×g for 5 min at 4° C. The cell pellet was resuspended in cold PBS buffer and centrifuged again at 300×g for 5 min at 4° C. All samples were counted and adjusted to a density of 2-3×10^6/100 μL, labeled with a Live/Dead kit for 30 min, and then centrifuged at 500×g for 3 min at 4° C. The cells were resuspended in 100 μL PBS buffer, blocked with anti-CD16/32 (Biolegend, Cat No. 101320) for 10 min, and incubated with the antibody according to the manufacturers' protocols at 4° C. for 30 min. […]
Assay [4] concerns the target T1, SLC7A5 (Mus musculus, UniProt Q9Z127).
T1 construct: endogenous in cells; host or cells: naive CD4+ T cells from splenocytes of C57BL/6 mice (Th0 and IL-12-induced Th1)
The assay can be described thus: Uptake of ^13C-labelled phenylalanine by naive CD4^+ T cells. Format: cell-based. The settings on record: 0.5 h incubation. The procedure:
Uptake of phenylalanine. Naive CD4^+ T cells were separated from the splenocytes of 8-month-old C57BL/6 female mice using the Naive CD4^+ T cell Isolation Kit (Stem Cell, Cat No. 19765) and were induced to Th1 differentiation by 20 ng/mL IL-12. After 3 days, a total of 5×10^5 cells/well Th1 cells and Th0 cells in 0.5 mL of RPMI-1640 medium were plated into 48-well plates. ^13C-labelled phenylalanine and 5 mM amino transporter inhibitor BCH were added into indicated wells. After 0.5 h, cells were collected and washed twice with ice-cold D-PBS. 50 μL deionized water was added and cells were lysed through freezing and thawing twice at −80° C. The cell lysate was centrifuged at 12000×g for 10 min and ^13C-labelled phenylalanine in the supernatant was analyzed by Mass spectrometry.

Assay [5] addresses LAT1 (Homo sapiens, UniProt Q01650). The settings on record: cited from earlier work.

Entries after “also recorded” stand apart in the source; their conditions may differ.

Sequence of LAT1 (Q01650 whole entry, species assumed): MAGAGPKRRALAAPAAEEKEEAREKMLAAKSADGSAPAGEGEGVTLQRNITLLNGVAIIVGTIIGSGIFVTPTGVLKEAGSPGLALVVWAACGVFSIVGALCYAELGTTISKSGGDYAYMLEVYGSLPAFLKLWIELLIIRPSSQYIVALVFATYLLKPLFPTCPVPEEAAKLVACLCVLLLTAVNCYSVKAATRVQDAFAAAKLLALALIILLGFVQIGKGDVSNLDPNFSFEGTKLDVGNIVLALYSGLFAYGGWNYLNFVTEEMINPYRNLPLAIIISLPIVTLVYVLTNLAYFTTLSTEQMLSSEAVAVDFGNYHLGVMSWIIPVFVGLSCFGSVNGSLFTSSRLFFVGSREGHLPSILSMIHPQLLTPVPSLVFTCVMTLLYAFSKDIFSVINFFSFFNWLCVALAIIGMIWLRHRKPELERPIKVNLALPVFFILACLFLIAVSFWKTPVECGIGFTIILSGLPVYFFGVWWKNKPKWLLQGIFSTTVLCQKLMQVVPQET
Sequence of LAT1 (P08195 102-630 partner, species assumed): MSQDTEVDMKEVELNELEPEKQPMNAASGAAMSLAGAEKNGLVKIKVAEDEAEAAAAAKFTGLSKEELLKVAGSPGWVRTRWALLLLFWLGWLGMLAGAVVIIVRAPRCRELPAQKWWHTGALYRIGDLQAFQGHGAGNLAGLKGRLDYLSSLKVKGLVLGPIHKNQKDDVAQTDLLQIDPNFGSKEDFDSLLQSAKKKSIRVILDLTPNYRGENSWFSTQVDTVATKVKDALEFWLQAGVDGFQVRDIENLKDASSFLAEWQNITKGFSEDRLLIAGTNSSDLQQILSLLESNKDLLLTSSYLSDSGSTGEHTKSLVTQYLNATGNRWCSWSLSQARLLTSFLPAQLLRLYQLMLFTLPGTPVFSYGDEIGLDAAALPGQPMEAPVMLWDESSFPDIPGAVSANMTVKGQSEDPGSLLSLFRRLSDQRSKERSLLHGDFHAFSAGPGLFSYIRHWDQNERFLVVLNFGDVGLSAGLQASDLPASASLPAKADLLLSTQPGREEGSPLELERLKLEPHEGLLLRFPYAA
T1 sequence (Q9Z127 whole entry): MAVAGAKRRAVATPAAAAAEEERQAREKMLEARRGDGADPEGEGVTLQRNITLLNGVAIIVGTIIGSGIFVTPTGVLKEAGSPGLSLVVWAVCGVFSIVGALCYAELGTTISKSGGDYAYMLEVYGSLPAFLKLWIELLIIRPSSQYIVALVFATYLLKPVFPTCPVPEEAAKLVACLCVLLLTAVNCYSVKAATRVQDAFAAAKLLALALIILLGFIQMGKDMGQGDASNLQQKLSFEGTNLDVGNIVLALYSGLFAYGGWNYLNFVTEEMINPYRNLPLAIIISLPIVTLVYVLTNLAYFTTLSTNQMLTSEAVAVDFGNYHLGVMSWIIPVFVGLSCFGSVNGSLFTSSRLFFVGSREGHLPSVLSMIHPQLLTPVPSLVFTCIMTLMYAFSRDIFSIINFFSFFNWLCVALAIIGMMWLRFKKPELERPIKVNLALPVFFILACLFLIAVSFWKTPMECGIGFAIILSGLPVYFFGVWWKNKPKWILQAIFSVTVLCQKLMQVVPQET
T1 sequence (P10852 whole entry partner): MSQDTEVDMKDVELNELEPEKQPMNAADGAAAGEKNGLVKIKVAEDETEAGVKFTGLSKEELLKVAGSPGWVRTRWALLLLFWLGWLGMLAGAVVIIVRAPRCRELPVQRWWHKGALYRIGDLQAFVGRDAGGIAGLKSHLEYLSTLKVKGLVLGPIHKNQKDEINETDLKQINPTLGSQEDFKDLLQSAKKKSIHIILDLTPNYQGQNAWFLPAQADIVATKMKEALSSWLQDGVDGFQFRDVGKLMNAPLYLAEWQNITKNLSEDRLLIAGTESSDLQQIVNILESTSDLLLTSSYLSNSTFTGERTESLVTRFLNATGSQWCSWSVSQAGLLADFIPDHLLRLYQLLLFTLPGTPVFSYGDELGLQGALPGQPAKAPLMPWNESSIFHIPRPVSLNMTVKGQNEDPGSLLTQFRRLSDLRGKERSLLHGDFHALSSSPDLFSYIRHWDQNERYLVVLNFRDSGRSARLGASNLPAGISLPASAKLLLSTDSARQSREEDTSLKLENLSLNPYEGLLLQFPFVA

Regarding `CC[C@H](C)[C@H](N)C(=O)O` [isoleucine], in assay [1], the “Th0 cell differentiation into Th1 cells” value is recorded as “increased” and the Th1 cell proliferation result is “increased”. Besides, the “Th1 cell count in the blood” value in assay [2] is recorded as “increased significantly”.
As for `Nc1cc(COc2c(Cl)cc(C[C@H](N)C(=O)O)cc2Cl)c2oc(-c3ccccc3)nc2c1` [JPH203], the “proportion of pro-inflammatory Th1 cells in the mouse brain” value in assay [3] (50 mg/kg) is “effectively inhibits; also recorded: significantly downregulated”; in assay [3] (listed as JPH 203, 50 mg/kg), “significantly reduces”. Further, in assay [4], the “uptake of ^13C-labelled phenylalanine by CD4^+ T cells” value is listed as “blocked”. Besides, the “LAT1 inhibition, selectivity” value in assay [5] is “selectively inhibits LAT1”.
With `N[C@@H](Cc1ccccc1)C(=O)O` [phenylalanine], in assay [1], the “Th0 cell differentiation into Th1 cells” value is “increased” and the Th1 cell proliferation entry is recorded as “increased”. In assay [2], the “Th1 cell count in the blood” value was “increased significantly”.
